Source: patent US20260317364A1, “ACTIVE MACROLIDE ANTIBIOTIC COMPOUNDS AGAINST PATHOGENS” (priority 2023, published 2026)

Columns and labels:
[1] = test system: panel of bacterial isolates, including macrolide-resistant strains; experiment: Antibacterial activity against panel of bacterial isolates (MIC); type: cell-based; details: comparison with other compounds of the series or reference macrolides
Method: Acylides 2-24, as well as carbamate acylides 29-42, 47-48 and 55 and 56 were tested for antibacterial activity against a panel of bacterial isolates, including macrolide-resistant strains. Furthermore, potential toxicity against human HEK293 and red blood cells was assessed. All compounds were submitted to ComPlat (Karlsruhe Institute of Technology, Germany) for compound management and screening. As reference antibiotics, the macrolide antibiotics clarithromycin (CTY), telithromycin (TEL), solithromycin (SOL), as well as the previously reported acylides TEA0777 and X10324 (See, Wayne, P. C. a. L. S. I., Methods for Dilution Antimicrobial Susceptibility Tests for Bacteria That Grow Aerobically. CLSI document M07. CLSI 2009) were employed. […]
Furthermore, the Gram-negative bacteria E. coli (DSM 30083), Acinetobacter baumannii Bouvet and Grimont 1986 (DSM 30007) and Pseudomonas aeruginosa (DSM 50071) were assayed. […] The MIC values were determined as previously described (See, Wayne, P. C. a. L. S. I., Methods for Dilution Antimicrobial Susceptibility Tests for Bacteria That Grow Aerobically. CLSI document M07. CLSI 2009; Albada, H. B., et al., Modulating the activity of short arginine-tryptophan containing antibacterial peptides with N-terminal metallocenoyl groups. 2012. 8(1): p. 1753-1764).

[2] = test system: E. coli tolC-deficient (tolC; MB5747); experiment: Antibacterial activity against tolC-deficient E. coli; type: cell-based

Compound | antibacterial activity (in words) [1] | activity against tolC-deficient E. coli [2]
2-desfluoro-solithromycin [Compound 50] | significantly less potent than solithroymcin | –
CC[C@H]1OC(=O)[C@H](C)C(=O)[C@H](C)[C@@H](O[C@@H]2O[C@H](C)C[C@H](N(C)C)[C@H]2O)[C@](C)(OC)C[C@@H](C)C(=O)[C@H](C)[C@H]2N(CCCCn3cnc(-c4cccnc4)c3)C(=O)O[C@]12C [telithromycin] | – | apart from the clinically used clarithromycin and telithromycin show activity
CC[C@H]1OC(=O)[C@H](C)[C@@H](O[C@H]2C[C@@](C)(OC)[C@@H](O)[C@H](C)O2)[C@H](C)[C@@H](O[C@@H]2O[C@H](C)C[C@H](N(C)C)[C@H]2O)[C@](C)(OC)C[C@@H](C)C(=O)[C@H](C)[C@@H](O)[C@]1(C)O [clarithromycin] | – | apart from the clinically used clarithromycin and telithromycin show activity
